Measured values taken from patent US20180155757A1, “IDENTIFICATION OF BACTERIA THAT ARE RESISTANT TO CARBAPENEMS BY MEMBRANE IMPERVIOUSNESS” (BIOMÉRIEUX, priority 2015, published 2018).
Where two headings read alike, the source gives them in different places.

What was measured:
Assay in all cases: Etest MIC of indicator carbapenems on MH II agar without/with PMBN
Type in all cases: cell-based
[1] = test system: E. aerogenes 1204050 (membrane impermeability); settings: in µg/mL
Procedure, shortened: (§1)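 MH II agar ± PMBN (0 to ⅕ MICPMBN, non-inhibitory), swabbed with 0.5 McFarland inoculum; IM 32, ETP 32, MP 32 Etest strips applied; read at 16–20 h, 35° C.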

[2] = test system: E. cloacae 1204153 (membrane impermeability); settings: in µg/mL
Procedure, shortened: as §1

[3] = test system: E. coli 1008078 (VIM producer)
Procedure, shortened: as §1

[4] = test system: K. pneumoniae KP 55 (porin−); settings: Klebsiella pneumoniae
Procedure, shortened: as §1

[5] = test system: E. aerogenes 1204048; settings: in µg/mL
Method: (§2) The determinations of antibiotic MIC were carried out on solid culture media with the Etest® method. To do this, Etest® strips (bioMérieux, France) were used: • Etest® Imipenem IM 32, and • Etest® Ertapenem ETP 32, and also solid culture media, differing from one another by virtue of their non-inhibitory concentrations of PMBN.
(§3) These solid culture media are prepared in Petri dishes (0=145 mm; V=50 ml) on a base of MH II Agar (Becton Dickinson®, United States), more or less supplemented with PMBN. The PMBN concentrations range from 0 up to concentrations equivalent to one fifth of the MIC of PMBN (⅕ MICPMBN).
(§4) Using a swab and the Retro C80™ rota-plater (bioMérieux, France), the culture media were inoculated with the bacteria, originating from an inoculum of 0.5 McFarland, prepared in 0.85% NaCl solution from colonies subcultured the day before on MH II agar.
(§5) The various Etest® strips are then deposited on the surface of the culture media. After 16 to 20 hours of incubation at 35° C., the MICS were read.
(§6) To do this, imipenem and ertapenem were used as indicator carbapenems. Non-inhibitory concentrations of PMBN, equivalent to concentrations of one tenth ( 1/10), one eighth (⅛) and one fifth (⅕) of the MIC of PMBN, were applied.
(§7) In the light of the MICPMBN values previously identified, very predominantly much higher than 300 μg/ml, the following standard concentrations were retained and applied to the bacterial strains to be tested: 50, 100, 150, 200 and 300 μg/ml.
(§8) By way of indicator carbapenems according to the invention, in addition to imipenem (IM) and ertapenem (ETP), meropenem (MP) was also tested. Like the other two antibiotics, meropenem was used in the form of Etest® strips (Etest® Meropenem MP 32 from the company bioMérieux, France).
(§9) The methods used to prepare the new culture media and to carry out the antibiotic-sensitivity tests are identical to those described above.

[6] = test system: E. aerogenes 9203076
Method: as §2, §3, §4, §5, §6, §7, §8, §9

[7] = test system: E. aerogenes 9306071
Method: as §2, §3, §4, §5, §6, §7, §8, §9

C[C@@H](O)[C@H]1C(=O)N2C(C(=O)O)=C(S[C@@H]3CN[C@H](C(=O)Nc4cccc(C(=O)O)c4)C3)[C@H](C)[C@H]12 [ETP, ertapenem]
MIC ([1]; [PMBN] 0, Table 4a): >32
MIC ([1]; [PMBN] 100, Table 4a): >32
MIC ([1]; [PMBN] 200, Table 4a): >32
MIC ([1]; [PMBN] 300, Table 4a): >32
MIC ([2]; [PMBN] 0, Table 4a): >32
MIC ([2]; [PMBN] 100, Table 4a): 8
MIC ([2]; [PMBN] 200, Table 4a): 4
MIC ([2]; [PMBN] 300, Table 4a): 3
MIC ([3]; [PMBN] 0, Table 4a): 2 µg/mL
MIC ([3]; [PMBN] 100, Table 4a): 0.75 µg/mL
MIC ([3]; [PMBN] 200, Table 4a): 0.5 µg/mL
MIC ([3]; [PMBN] 300, Table 4a): 0.38 µg/mL
MIC ([4]; [PMBN] 0): 0.38 µg/mL
MIC ([4]; [PMBN] 50 μg/ml): 0.25 µg/mL
MIC ([4]; [PMBN] 100 μg/ml): 0.19 µg/mL
MIC ([4]; [PMBN] 150 μg/ml): 0.125 µg/mL
MIC ([4]; [PMBN] 200 μg/ml): 0.064 µg/mL
MIC ([5]; E. aerogenes 1204048 (membrane impermeability), [PMBN] 0, Table 4a): >32
MIC ([5]; E. aerogenes 1204048 (membrane impermeability), [PMBN] 100, Table 4a): 16
MIC ([5]; E. aerogenes 1204048 (membrane impermeability), [PMBN] 200, Table 4a): 16
MIC ([5]; E. aerogenes 1204048 (membrane impermeability), [PMBN] 300, Table 4a): 8
MIC ([5]; E. aerogenes 1204048, [PMBN] 0, Table 3): 32
MIC ([5]; E. aerogenes 1204048, [PMBN] MIC/5): 2
MIC ([5]; E. aerogenes 1204048, [PMBN] MIC/8): 2
MIC ([5]; E. aerogenes 1204048, [PMBN] MIC/10): 4
MIC ([6]; E. aerogenes 9203076 (membrane impermeability), [PMBN] 0, Table 4a, in µg/mL): >32
MIC ([6]; E. aerogenes 9203076 (membrane impermeability), [PMBN] 100, Table 4a, in µg/mL): 16
MIC ([6]; E. aerogenes 9203076 (membrane impermeability), [PMBN] 200, Table 4a, in µg/mL): 12
MIC ([6]; E. aerogenes 9203076 (membrane impermeability), [PMBN] 300, Table 4a, in µg/mL): 4
MIC ([6]; E. aerogenes 9203076, [PMBN] 0, Table 3, in µg/mL): 32
MIC ([6]; E. aerogenes 9203076, [PMBN] MIC/5, in µg/mL): 2
MIC ([6]; E. aerogenes 9203076, [PMBN] MIC/8, in µg/mL): 4
MIC ([6]; E. aerogenes 9203076, [PMBN] MIC/10, in µg/mL): 4
MIC ([6]; Klebsiella aerogenes, 9203076, E. aerogenes 9203076 (porin−), [PMBN] 0, Table 4, read-out: MIC): 24 µg/mL
MIC ([6]; Klebsiella aerogenes, 9203076, E. aerogenes 9203076 (porin−), [PMBN] 150 μg/ml, Table 4, read-out: MIC): 3 µg/mL
MIC ([6]; Klebsiella aerogenes, 9203076, E. aerogenes 9203076 (porin−), [PMBN] 200 μg/ml, Table 4, read-out: MIC): 1.5 µg/mL
MIC ([7]; E. aerogenes 9306071 (membrane impermeability), [PMBN] 0, Table 4a): > 32 µg/mL
MIC ([7]; E. aerogenes 9306071 (membrane impermeability), [PMBN] 100, Table 4a): 12 µg/mL
MIC ([7]; E. aerogenes 9306071 (membrane impermeability), [PMBN] 200, Table 4a): 8 µg/mL
MIC ([7]; E. aerogenes 9306071 (membrane impermeability), [PMBN] 300, Table 4a): 4 µg/mL
MIC ([7]; E. aerogenes 9306071, [PMBN] 0, Table 3): 32 µg/mL
MIC ([7]; E. aerogenes 9306071, [PMBN] MIC/5): 4 µg/mL
MIC ([7]; E. aerogenes 9306071, [PMBN] MIC/8): 4 µg/mL
MIC ([7]; E. aerogenes 9306071, [PMBN] MIC/10): 4 µg/mL
